{"source": "paper PMC4393303", "about": "(PLoS ONE, 2015)", "key": {"PknE": {"target": "PknE (Mycobacterium tuberculosis, UniProt P9WI77)", "sequence (P9WI77 whole entry)": "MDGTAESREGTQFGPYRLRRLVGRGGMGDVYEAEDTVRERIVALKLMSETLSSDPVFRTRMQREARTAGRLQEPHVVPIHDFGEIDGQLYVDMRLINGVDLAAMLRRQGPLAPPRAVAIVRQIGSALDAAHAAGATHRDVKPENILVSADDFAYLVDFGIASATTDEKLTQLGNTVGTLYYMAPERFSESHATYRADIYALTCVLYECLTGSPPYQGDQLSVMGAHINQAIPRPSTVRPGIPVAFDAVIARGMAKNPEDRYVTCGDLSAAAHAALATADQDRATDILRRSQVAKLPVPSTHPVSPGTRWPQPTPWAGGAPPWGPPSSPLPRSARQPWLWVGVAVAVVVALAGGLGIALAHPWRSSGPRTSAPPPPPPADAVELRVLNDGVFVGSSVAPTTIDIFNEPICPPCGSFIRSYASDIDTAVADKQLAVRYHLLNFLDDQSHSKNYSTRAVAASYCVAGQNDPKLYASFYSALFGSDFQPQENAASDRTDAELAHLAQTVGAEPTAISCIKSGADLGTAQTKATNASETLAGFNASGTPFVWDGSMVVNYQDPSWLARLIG"}, "PknH": {"target": "PknH (Mycobacterium tuberculosis, UniProt P9WI71)", "sequence (P9WI71 whole entry)": "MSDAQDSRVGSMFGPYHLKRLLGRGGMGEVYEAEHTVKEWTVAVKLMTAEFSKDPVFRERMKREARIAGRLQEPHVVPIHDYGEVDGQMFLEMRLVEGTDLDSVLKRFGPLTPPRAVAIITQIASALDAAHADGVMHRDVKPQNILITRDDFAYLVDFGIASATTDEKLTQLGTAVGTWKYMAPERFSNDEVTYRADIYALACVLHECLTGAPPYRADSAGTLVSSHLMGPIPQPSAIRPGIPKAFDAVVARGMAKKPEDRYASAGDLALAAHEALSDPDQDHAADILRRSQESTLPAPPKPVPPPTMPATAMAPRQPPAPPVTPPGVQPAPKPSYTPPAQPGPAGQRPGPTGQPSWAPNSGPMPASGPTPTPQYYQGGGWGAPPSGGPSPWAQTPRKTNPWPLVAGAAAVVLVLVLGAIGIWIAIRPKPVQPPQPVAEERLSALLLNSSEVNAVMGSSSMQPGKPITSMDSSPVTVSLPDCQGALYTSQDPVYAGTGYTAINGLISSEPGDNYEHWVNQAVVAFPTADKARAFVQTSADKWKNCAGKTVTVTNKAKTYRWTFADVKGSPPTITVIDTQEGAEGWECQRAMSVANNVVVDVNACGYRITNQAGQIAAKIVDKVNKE"}, "PknJ": {"target": "PknJ (Mycobacterium tuberculosis, UniProt P9WI67)", "sequence (P9WI67 whole entry)": "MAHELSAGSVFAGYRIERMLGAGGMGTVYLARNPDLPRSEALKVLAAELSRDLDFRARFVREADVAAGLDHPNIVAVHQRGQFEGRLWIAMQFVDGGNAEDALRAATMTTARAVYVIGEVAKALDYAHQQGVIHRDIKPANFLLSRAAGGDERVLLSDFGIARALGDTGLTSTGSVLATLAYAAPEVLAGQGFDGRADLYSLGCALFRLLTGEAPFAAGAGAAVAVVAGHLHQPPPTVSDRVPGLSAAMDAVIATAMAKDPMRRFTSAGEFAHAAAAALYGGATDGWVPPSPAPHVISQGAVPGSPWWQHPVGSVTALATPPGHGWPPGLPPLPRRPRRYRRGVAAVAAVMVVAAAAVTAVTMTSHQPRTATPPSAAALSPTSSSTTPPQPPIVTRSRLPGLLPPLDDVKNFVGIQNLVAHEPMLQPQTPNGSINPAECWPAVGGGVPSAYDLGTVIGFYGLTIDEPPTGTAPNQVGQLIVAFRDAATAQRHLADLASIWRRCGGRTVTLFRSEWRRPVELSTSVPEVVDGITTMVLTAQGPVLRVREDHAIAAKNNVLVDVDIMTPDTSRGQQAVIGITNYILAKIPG"}, "PknD (GST-PknD)": {"target": "PknD (GST-PknD) (Mycobacterium tuberculosis, UniProt P9WI79)", "sequence (P9WI79 whole entry)": "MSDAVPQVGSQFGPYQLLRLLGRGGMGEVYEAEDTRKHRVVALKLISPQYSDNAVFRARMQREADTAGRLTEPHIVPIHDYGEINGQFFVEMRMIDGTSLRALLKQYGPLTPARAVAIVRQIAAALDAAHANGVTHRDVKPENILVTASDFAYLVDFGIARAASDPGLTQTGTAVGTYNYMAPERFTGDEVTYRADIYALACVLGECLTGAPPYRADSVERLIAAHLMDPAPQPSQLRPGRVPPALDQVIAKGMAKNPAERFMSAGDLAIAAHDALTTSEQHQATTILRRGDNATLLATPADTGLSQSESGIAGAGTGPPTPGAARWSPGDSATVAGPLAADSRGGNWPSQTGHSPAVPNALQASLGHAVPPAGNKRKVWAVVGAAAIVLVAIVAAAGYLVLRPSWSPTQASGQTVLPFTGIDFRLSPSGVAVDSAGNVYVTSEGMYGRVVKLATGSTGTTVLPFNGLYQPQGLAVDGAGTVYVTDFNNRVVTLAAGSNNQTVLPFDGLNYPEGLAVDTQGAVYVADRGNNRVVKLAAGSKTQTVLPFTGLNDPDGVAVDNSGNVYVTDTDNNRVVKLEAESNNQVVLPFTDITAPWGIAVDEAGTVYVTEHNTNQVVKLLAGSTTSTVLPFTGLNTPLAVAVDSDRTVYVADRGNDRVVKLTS"}, "PknA": {"target": "PknA (Mycobacterium tuberculosis, UniProt P9WI83)", "sequence (P9WI83 whole entry)": "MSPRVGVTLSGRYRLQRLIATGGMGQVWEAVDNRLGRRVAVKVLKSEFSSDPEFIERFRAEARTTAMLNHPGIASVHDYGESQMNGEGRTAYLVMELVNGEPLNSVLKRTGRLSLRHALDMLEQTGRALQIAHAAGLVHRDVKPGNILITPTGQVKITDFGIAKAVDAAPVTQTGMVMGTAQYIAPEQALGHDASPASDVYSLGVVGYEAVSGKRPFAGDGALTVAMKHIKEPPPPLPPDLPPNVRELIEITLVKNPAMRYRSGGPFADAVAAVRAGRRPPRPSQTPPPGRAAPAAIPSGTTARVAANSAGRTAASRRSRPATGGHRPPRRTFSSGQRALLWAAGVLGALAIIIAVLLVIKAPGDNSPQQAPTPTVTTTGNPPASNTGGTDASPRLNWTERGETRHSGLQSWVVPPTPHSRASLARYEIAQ"}, "PknG": {"target": "PknG (Mycobacterium tuberculosis, UniProt P9WI73)", "sequence (P9WI73 whole entry)": "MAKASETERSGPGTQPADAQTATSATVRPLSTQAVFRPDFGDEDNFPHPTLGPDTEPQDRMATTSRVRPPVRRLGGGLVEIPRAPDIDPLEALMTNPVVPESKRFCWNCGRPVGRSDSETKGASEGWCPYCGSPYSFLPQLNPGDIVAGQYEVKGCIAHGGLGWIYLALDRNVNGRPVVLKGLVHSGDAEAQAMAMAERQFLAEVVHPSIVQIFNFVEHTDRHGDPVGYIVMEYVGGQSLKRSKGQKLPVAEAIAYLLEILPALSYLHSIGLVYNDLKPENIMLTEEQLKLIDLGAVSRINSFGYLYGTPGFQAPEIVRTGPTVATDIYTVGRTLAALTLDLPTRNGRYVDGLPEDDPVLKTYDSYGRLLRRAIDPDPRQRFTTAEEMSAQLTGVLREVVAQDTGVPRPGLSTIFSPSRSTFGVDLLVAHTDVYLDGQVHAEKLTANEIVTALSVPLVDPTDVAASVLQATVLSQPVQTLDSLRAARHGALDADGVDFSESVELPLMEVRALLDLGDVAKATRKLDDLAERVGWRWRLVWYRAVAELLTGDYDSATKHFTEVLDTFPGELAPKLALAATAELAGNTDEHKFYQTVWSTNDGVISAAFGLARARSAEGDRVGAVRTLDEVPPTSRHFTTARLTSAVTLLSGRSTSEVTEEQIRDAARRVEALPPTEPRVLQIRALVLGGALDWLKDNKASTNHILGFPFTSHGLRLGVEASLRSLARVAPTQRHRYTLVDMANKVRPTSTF"}}, "data": [{"compound": "Nc1ncnc2c1ncn2[C@@H]1O[C@H](COP(=O)(O)OP(=O)(O)OP(=O)(O)O)[C@@H](O)[C@H]1O", "note": "[[γ-^33P]ATP]", "values": [{"measurement": "in vitro radiolabelled phosphorylation, SDS-PAGE autoradiography", "setting": "PknE", "value": "PknA, PknD, PknE, PknG, PknH and PknJ phosphorylated the (His)6-MDH"}, {"measurement": "in vitro radiolabelled phosphorylation, SDS-PAGE autoradiography", "setting": "PknH", "value": "PknA, PknD, PknE, PknG, PknH and PknJ phosphorylated the (His)6-MDH"}, {"measurement": "in vitro radiolabelled phosphorylation, SDS-PAGE autoradiography", "setting": "PknJ", "value": "PknA, PknD, PknE, PknG, PknH and PknJ phosphorylated the (His)6-MDH"}, {"measurement": "in vitro radiolabelled phosphorylation, SDS-PAGE autoradiography", "setting": "PknD (GST-PknD)", "value": "the MDH was phosphorylated by PknD, but could not be autophosphorylated"}, {"measurement": "in vitro radiolabelled phosphorylation, SDS-PAGE autoradiography", "setting": "PknA", "value": "PknA, PknD, PknE, PknG, PknH and PknJ phosphorylated the (His)6-MDH"}, {"measurement": "in vitro radiolabelled phosphorylation, SDS-PAGE autoradiography", "setting": "PknG", "value": "PknA, PknD, PknE, PknG, PknH and PknJ phosphorylated the (His)6-MDH"}]}]}
